Drawing on ChEMBL document CHEMBL1138506, “Exploration of structure-activity relationship determinants in analogue series” (J Med Chem, 2009), this text covers Activity for 65 compounds.

In data set [1] the target is T1, Peroxisomal multifunctional enzyme type 2 (Homo sapiens) (UniProt P51659).
T1 sequence (whole entry): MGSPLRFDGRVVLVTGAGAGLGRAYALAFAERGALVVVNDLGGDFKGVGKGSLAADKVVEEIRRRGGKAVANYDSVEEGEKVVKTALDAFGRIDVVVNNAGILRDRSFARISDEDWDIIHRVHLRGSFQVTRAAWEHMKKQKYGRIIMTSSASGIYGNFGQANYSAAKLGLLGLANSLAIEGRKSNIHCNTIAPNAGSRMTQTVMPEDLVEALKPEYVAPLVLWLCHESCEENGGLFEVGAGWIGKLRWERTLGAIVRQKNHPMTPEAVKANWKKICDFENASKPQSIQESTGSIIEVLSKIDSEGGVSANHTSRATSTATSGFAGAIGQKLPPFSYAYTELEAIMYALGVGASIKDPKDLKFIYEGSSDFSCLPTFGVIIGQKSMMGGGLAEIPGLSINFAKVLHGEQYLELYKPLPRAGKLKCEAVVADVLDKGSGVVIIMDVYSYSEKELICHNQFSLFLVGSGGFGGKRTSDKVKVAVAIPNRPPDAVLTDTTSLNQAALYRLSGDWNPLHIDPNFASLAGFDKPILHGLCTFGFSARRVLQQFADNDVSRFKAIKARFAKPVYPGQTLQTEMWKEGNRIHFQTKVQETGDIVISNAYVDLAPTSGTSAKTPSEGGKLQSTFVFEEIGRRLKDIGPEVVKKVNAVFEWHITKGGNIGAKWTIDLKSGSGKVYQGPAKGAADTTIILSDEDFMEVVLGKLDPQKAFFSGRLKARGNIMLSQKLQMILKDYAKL
Briefly: Inhibition of hydroxysteroid-17-beta dehydrogenase 4.

Data set [2] has as its target Prothrombin (Homo sapiens) (UniProt P00734). Put plainly: Inhibition of human thrombin.
The next data set has as its target Cytochrome P450 3A4 (Homo sapiens, UniProt P08684). Put plainly: Inhibition of human CYP3A4. It counts as ADME.

Chain of Cytochrome P450 3A4 (P08684 whole entry): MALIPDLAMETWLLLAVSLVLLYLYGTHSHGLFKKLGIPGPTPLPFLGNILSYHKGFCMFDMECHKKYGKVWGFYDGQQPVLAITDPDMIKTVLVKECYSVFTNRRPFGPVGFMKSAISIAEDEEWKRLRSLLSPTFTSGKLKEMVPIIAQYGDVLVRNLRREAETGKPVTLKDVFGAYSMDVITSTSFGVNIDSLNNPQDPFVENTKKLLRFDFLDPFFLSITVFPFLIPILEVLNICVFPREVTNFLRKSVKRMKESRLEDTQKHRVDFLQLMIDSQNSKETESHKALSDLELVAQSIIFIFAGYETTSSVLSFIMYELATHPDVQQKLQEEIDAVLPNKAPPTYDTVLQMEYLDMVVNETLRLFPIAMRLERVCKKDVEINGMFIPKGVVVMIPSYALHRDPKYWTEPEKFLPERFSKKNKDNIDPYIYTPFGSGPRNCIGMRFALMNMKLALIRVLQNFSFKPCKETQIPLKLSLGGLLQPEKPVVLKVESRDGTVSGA

In data set [1], `CC(=O)COc1ccc2c3c(c(=O)oc2c1C)CCCCC3` displayed an Activity of 13 µM. Regarding `Nc1nc(-c2ccco2)nn1C(=O)c1ccccc1Cl`, the Activity in data set [2] came to 14000 nM.

As for `COc1ccccc1CNc1ncnc2ccc(-c3ccccc3C#N)cc12`, on Cytochrome P450 3A4, the Activity was 4 µM. For the compound `Cc1cccc(CNc2ncncc2-c2ccc(C(=O)N(C)C)cc2)c1`, the Activity on Cytochrome P450 3A4 amounted to 631 µM. As for `COc1ccccc1-c1ccc2ncnc(NCc3ccccc3)c2c1`, the Activity at Cytochrome P450 3A4 came out at 12.6 µM. On the same count and under the same terms, the value for `COc1cccc(-c2cncnc2NCc2cccc(C)c2)c1` was 398 µM; that for `CN(C)C(=O)c1ccc(-c2ccc3ncnc(NCc4ccccc4)c3c2)cc1` was 15.8 µM. Take `COc1ccc(C(=O)n2nc(-c3ccco3)nc2N)cc1`: the Activity in data set [2] was found to be 828 nM. As to `COc1ccc(CNc2ncncc2-c2cccc(C#N)c2)c(OC)c1`, the Activity on Cytochrome P450 3A4 stood at 316 µM.

With `COc1ccc(CNc2ncncc2-c2ccccc2C)c(OC)c1`, the Activity on Cytochrome P450 3A4 turned out to be 398 µM. Same read-out and setting: the result for `COc1cccc(-c2cncnc2NCc2ccccc2OC)c1` reads 501 µM. On the same count and under the same terms, the value for `CN(C)c1ccc(-c2ccc3ncnc(NCc4ccccc4)c3c2)cc1` was 2.5 µM; that for `COc1ccc(CNc2ncnc3ccc(-c4ccc(C(=O)N(C)C)cc4)cc23)c(OC)c1` was 2.5 µM. `COc1cccc(-c2cncnc2NCc2ccc(OC)cc2OC)c1`: the Activity on Cytochrome P450 3A4 was found to be 501 µM. Same read-out and setting: the result for `Cc1ccccc1-c1cncnc1NCc1ccccc1` reads 316 µM. The same measure, in the same setting: the value for `COc1ccccc1CNc1ncnc2ccc(-c3cccc(NS(C)(=O)=O)c3)cc12` was 3.2 µM. Regarding `CC(=O)C(C)Oc1ccc2c3c(c(=O)oc2c1)CCCCC3` (stereo not given), in data set [1], the Activity is 25 µM. For the compound `Cc1cccc(CNc2ncncc2-c2cccc(C#N)c2)c1`, the Activity at Cytochrome P450 3A4 was found to be 199 µM. As for `CSc1nc(-c2ccco2)nn1C(=O)c1ccccc1`, in data set [2], the Activity is 82 nM.

For `COc1ccc(CNc2ncnc3ccc(-c4ccccc4C#N)cc23)c(OC)c1`, on Cytochrome P450 3A4, the Activity stood at 1 µM. The same measure, in the same setting: the value for `COc1ccccc1-c1cncnc1NCc1cccc(C)c1` was 100 µM.

In the case of `COc1ccc(CNc2ncncc2-c2cccc(NS(C)(=O)=O)c2)c(OC)c1`, the Activity on Cytochrome P450 3A4 is 251 µM. The compound `COc1ccccc1CNc1ncnc2ccc(-c3ccccc3CN(C)C)cc12` came in with an Activity at Cytochrome P450 3A4 of 12.6 µM.

As to `CN(C)C(=O)c1ccc(-c2cncnc2NCc2ccccc2)cc1`, at Cytochrome P450 3A4, the Activity was found to be 2512 µM. On the same count and under the same terms, the result for `COc1ccc(CNc2ncncc2-c2ccc(C(=O)N(C)C)cc2)c(OC)c1` reads 501 µM. In the case of `COc1ccc(CNc2ncnc3ccc(-c4ccccc4CN(C)C)cc23)c(OC)c1`, the Activity on Cytochrome P450 3A4 came to 8 µM. Regarding `Nc1nc(-c2ccco2)nn1C(=O)c1ccc(Cl)cc1`, in data set [2], the Activity came to 1460 nM.

On Cytochrome P450 3A4, `COc1ccc(CNc2ncnc3ccc(-c4cccc(C#N)c4)cc23)c(OC)c1` gave an Activity of 1.6 µM.

In data set [2], `COc1ccccc1C(=O)n1nc(-c2ccco2)nc1SC` displayed an Activity of 1 nM. In the case of `COc1ccc(CNc2ncncc2-c2ccccc2CN(C)C)c(OC)c1`, the Activity at Cytochrome P450 3A4 stood at 398 µM. Still for that read-out and setting: the result for `COc1ccccc1CNc1ncncc1-c1ccccc1C(F)(F)F` reads 79 µM. `Cc1ccc(C(=O)n2nc(-c3ccco3)nc2N)cc1` displayed an Activity in data set [2] of 741 nM. On to `COC(=O)C(C)Oc1ccc2c3c(c(=O)oc2c1)CCCCC3` (stereo not given), for which the Activity in data set [1] stood at 32 µM.

Take `COc1ccccc1CNc1ncncc1-c1ccccc1Cl`: the Activity on Cytochrome P450 3A4 came out at 199 µM.

For the compound `Cc1cccc(CNc2ncncc2-c2ccccc2C)c1`, the Activity on Cytochrome P450 3A4 is 398 µM. On to `COc1ccc(CNc2ncnc3ccc(-c4cccc(NS(C)(=O)=O)c4)cc23)c(OC)c1`, for which, at Cytochrome P450 3A4, the Activity was 2 µM. `COc1ccc(CNc2ncnc3ccc(-c4ccccc4OC)cc23)c(OC)c1` had an Activity at Cytochrome P450 3A4 of 2 µM.

`COc1cccc(-c2cncnc2NCc2ccccc2)c1` returned an Activity on Cytochrome P450 3A4 of 316 µM. The same measure, in the same setting: the result for `Cc1cccc(CNc2ncncc2-c2cccc(NS(C)(=O)=O)c2)c1` reads 158 µM. Still for that read-out and setting: the result for `Cc1cccc(CNc2ncnc3ccc(-c4ccc(C(=O)N(C)C)cc4)cc23)c1` reads 2 µM. Same read-out and setting: the result for `CS(=O)(=O)Nc1cccc(-c2cncnc2NCc2ccccc2)c1` reads 631 µM. Compound `COc1ccc(CNc2ncnc3ccc(-c4ccc(N(C)C)cc4)cc23)c(OC)c1` registered an Activity on Cytochrome P450 3A4 of 4 µM. On the same count and under the same terms, the result for `CN(C)Cc1ccccc1-c1ccc2ncnc(NCc3ccccc3)c2c1` reads 15.8 µM; that for `COc1ccc(CNc2ncncc2-c2ccccc2OC)cc1`, 199 µM. Still for that read-out and setting: the result for `COc1cccc(-c2ccc3ncnc(NCc4ccc(OC)cc4OC)c3c2)c1` reads 2.5 µM. On the same count and under the same terms, the result for `COc1ccccc1CNc1ncnc2ccc(-c3ccccc3OC)cc12` reads 6.3 µM; that for `COc1ccccc1CNc1ncncc1-c1cccc(NS(C)(=O)=O)c1`, 251 µM. With `COc1ccc(CNc2ncncc2-c2ccccc2C(F)(F)F)c(OC)c1`, the Activity at Cytochrome P450 3A4 was determined as 316 µM. In data set [2], `COc1ccc(C(=O)n2nc(-c3ccco3)nc2SC)cc1OC` yielded an Activity of 204 nM.

For the compound `N#Cc1cccc(-c2cncnc2NCc2ccccc2)c1`, the Activity at Cytochrome P450 3A4 stood at 1259 µM. With `Cc1cccc(CNc2ncncc2-c2ccccc2C(F)(F)F)c1`, the Activity on Cytochrome P450 3A4 turned out to be 79 µM.

The compound `Nc1nc(-c2ccco2)nn1C(=O)c1ccccc1` registered an Activity in data set [2] of 926 nM. `COc1ccc(C(=O)n2nc(-c3ccco3)nc2N)cc1OC`: the Activity in data set [2] stood at 2230 nM. With `NC(=O)COc1ccc2c3c(c(=O)oc2c1)CCCCC3`, the Activity in data set [1] turned out to be 25 µM.

For the compound `COc1ccccc1C(=O)n1nc(-c2ccco2)nc1N`, in data set [2], the Activity worked out at 6930 nM.

Take `Cc1cccc(CNc2ncncc2-c2ccccc2Cl)c1`: the Activity at Cytochrome P450 3A4 turned out to be 199 µM. Still for that read-out and setting: the result for `COc1ccc(CNc2ncncc2-c2ccc(N(C)C)cc2)c(OC)c1` reads 199 µM. Same read-out and setting: the value for `COc1ccccc1CNc1ncnc2ccc(-c3cccc(C#N)c3)cc12` was 8 µM; that for `COc1ccccc1-c1cncnc1NCc1ccccc1` was 251 µM; that for `COc1ccccc1CNc1ncnc2ccc(-c3ccc(C(=O)N(C)C)cc3)cc12` was 10 µM. With `COc1ccccc1CNc1ncnc2ccc(-c3ccc(N(C)C)cc3)cc12`, the Activity on Cytochrome P450 3A4 was 2 µM.

`COc1ccc(CNc2ncncc2-c2ccccc2OC)c(OC)c1` returned an Activity at Cytochrome P450 3A4 of 316 µM.

Take `CSc1nc(-c2ccco2)nn1C(=O)c1ccc(C)cc1`: the Activity in data set [2] worked out at 159 nM. At Cytochrome P450 3A4, `Cc1cccc(CNc2ncnc3ccc(-c4ccccc4C#N)cc23)c1` had an Activity of 1.2 µM. Still for that read-out and setting: the value for `COc1ccccc1CNc1ncncc1-c1ccc(C(=O)N(C)C)cc1` was 2512 µM.
